These are literature values, as cited in patent US20140187505A1, “Cardiac Glycosides to Treat Cystic Fibrosis and Other IL-8 Dependent Disorders” (priority 2002, published 2014).

Where two headings read alike, the source gives them in different places.

For data set [1] the following is noted: eluent acetonitrile/water 45:55; cited from earlier work.
The test system of data set [2] is guinea-pig heart Na^+-K^+-ATPase. Conditions: cited from earlier work.
For data set [3] the following is noted: octanol/water (20 mM TRIS-HCl, pH 7.4), cited from earlier work.
The conditions of data set [4]: mobile phase: methanol/water 30:70; cited from earlier work.

Take 12-Acetyl-β-methyldigoxin: the “K retentions for reversed-phase high pressure liquid chromatography” value (“K retentions” for short) in data set [1] was 4.04. The ID50 in data set [2] was 25.55 ± 1.70 ×10^−4 mol l^−1. For the same molecule, the “P (partition coefficient in octanol/water system)” value in data set [3] was 746.0 ± 71.3. Further, the “RM values (lipophilicity, reversed-phase thin layer chromatography)” value (shortened to “RM values”) in data set [4] is recorded as 1.26.

Regarding `CC(=O)O[C@@H]1C[C@H]2[C@@H](CC[C@@H]3C[C@@H](O[C@H]4C[C@H](O)[C@H](O[C@H]5C[C@H](O)[C@H](O[C@H]6C[C@H](O)[C@H](O)[C@@H](C)O6)[C@@H](C)O5)[C@@H](C)O4)CC[C@@]32C)[C@@]2(O)CC[C@H](C3=CC(=O)OC3)[C@@]12C` [12-Acetyldigoxin], in data set [1], the “K retentions” value is given as 1.60. For the same molecule, the ID50 in data set [2] is 20.90 ± 0.98 ×10^−4 mol l^−1. In data set [3], the “P (partition coefficient in octanol/water system)” value is 195.0 ± 17.5. Further, in data set [4], the “RM values” value is listed as 0.89.

Turning to `CC(=O)O[C@H]1C[C@]2(O)[C@@H]3CC[C@@H]4C[C@@H](O[C@H]5C[C@H](O)[C@H](O[C@H]6C[C@H](O)[C@H](O[C@H]7C[C@H](O)[C@H](O)[C@@H](C)O7)[C@@H](C)O6)[C@@H](C)O5)CC[C@]4(C)[C@H]3CC[C@]2(C)[C@H]1C1=CC(=O)OC1` [16-Acetylgitoxin], in data set [1], the “K retentions” value is on record as 2.27. The ID50 in data set [2] was 0.85 ± 0.01 ×10^−4 mol l^−1. Also, in data set [3], the “P (partition coefficient in octanol/water system)” value is 144.0 ± 32.8. The “RM values” value in data set [4] is listed as 0.89.

In the case of `C[C@H]1O[C@@H](O[C@H]2[C@@H](O)C[C@H](O[C@H]3[C@@H](O)C[C@H](O[C@H]4CC[C@@]5(C)[C@H](CC[C@@H]6[C@@H]5CC[C@]5(C)[C@@H](C7=CC(=O)OC7)[C@@H](OC=O)C[C@]65O)C4)O[C@@H]3C)O[C@@H]2C)C[C@H](O)[C@@H]1O` [16-Formylgitoxin], in data set [1], the “K retentions” value is 1.82. The ID50 in data set [2] is 0.78 ± 0.01 ×10^−4 mol l^−1. Further, the “P (partition coefficient in octanol/water system)” value in data set [3] is listed as 110.9 ± 6.2. In data set [4], the “RM values” value was 0.84.

Take `C[C@H]1O[C@@H](O[C@H]2[C@@H](O)C[C@H](O[C@H]3[C@@H](O)C[C@H](O[C@H]4CC[C@@]5(C)[C@H](CC[C@@H]6[C@@H]5CC[C@]5(C)[C@H](C7COC(=O)C7)CC[C@]65O)C4)O[C@@H]3C)O[C@@H]2C)C[C@H](O)[C@@H]1O` (some centres unmarked) [Dihydro-digitoxin]: the “K retentions” value in data set [1] is given as 3.40. Also, in data set [2], the ID50 was 32.40 ± 2.85 ×10^−4 mol l^−1. In data set [3], the “P (partition coefficient in octanol/water system)” value is recorded as 800.0 ± 112.0. The “RM values” value in data set [4] is 1.42.

With `C[C@@H]1O[C@@H](O[C@H]2C[C@@H](O)[C@]3(CO)[C@H]4[C@H](O)C[C@]5(C)[C@@H]([C@@H]6COC(=O)C6)CC[C@]5(O)[C@@H]4CC[C@]3(O)C2)[C@H](O)[C@H](O)[C@H]1O` [Dihydro-ouabain], in data set [1], the “K retentions” value is 0.15. In addition, the ID50 in data set [2] is 45.50 ± 3.90 ×10^−4 mol l^−1. In data set [3], the “P (partition coefficient in octanol/water system)” value was 0.20 ± 0.00. The “RM values” value in data set [4] was −0.71.

On to `C[C@H]1O[C@@H](O[C@H]2CC[C@@]3(C)[C@H](CC[C@@H]4[C@@H]3CC[C@]3(C)[C@@H](C5=CC(=O)OC5)[C@@H](O)C[C@]43O)C2)C[C@H](O)[C@@H]1O` [Gitoxigenin-mono-digitoxoside], for which the “K retentions” value in data set [1] was 0.83. Also, the ID50 in data set [2] is 2.56 ± 0.21 ×10^−4 mol l^−1. Further, the “P (partition coefficient in octanol/water system)” value in data set [3] was 60.1 ± 10.0. Besides, the “RM values” value in data set [4] is recorded as 0.46.

On to `C[C@]12CC[C@H](O)C[C@H]1CC[C@@H]1[C@@H]2CC[C@]2(C)[C@@H](C3=CC(=O)OC3)[C@@H](O)C[C@]12O` [Gitoxigenin], for which, in data set [1], the “K retentions” value is given as 0.67. Also, in data set [2], the ID50 was 21.37 ± 0.97 ×10^−4 mol l^−1. Moreover, the “P (partition coefficient in octanol/water system)” value in data set [3] is on record as 44.1 ± 1.8. The “RM values” value in data set [4] was 0.38.

For the molecule `C[C@H]1O[C@@H](O[C@H]2[C@@H](O)C[C@H](O[C@H]3[C@@H](O)C[C@H](O[C@H]4CC[C@@]5(C)[C@H](CC[C@@H]6[C@@H]5CC[C@]5(C)[C@@H](C7=CC(=O)OC7)[C@@H](O)C[C@]65O)C4)O[C@@H]3C)O[C@@H]2C)C[C@H](O)[C@@H]1O` [Gitoxin], the “K retentions” value in data set [1] is listed as 1.28. Further, in data set [2], the ID50 is 2.55 ± 0.14 ×10^−4 mol l^−1. Further, in data set [3], the “P (partition coefficient in octanol/water system)” value was 48.0 ± 11.2. Further, the “RM values” value in data set [4] was 0.68.

Take `CC(=O)O[C@H]1[C@@H](OC(C)=O)C[C@H](O[C@H]2[C@@H](OC(C)=O)C[C@H](O[C@H]3[C@@H](OC(C)=O)C[C@H](O[C@H]4CC[C@@]5(C)[C@H](CC[C@@H]6[C@@H]5CC[C@]5(C)[C@@H](C7=CC(=O)OC7)[C@@H](OC(C)=O)C[C@]65O)C4)O[C@@H]3C)O[C@@H]2C)O[C@@H]1C` [Pentaacetylgitoxin]: the “K retentions” value in data set [1] was 49.45. Moreover, in data set [2], the ID50 was 112.00 ± 10.70 ×10^−4 mol l^−1. Further, the “P (partition coefficient in octanol/water system)” value in data set [3] is 2890.0 ± 668.0. Also, the “RM values” value in data set [4] was 1.86.

In the case of `C[C@H]1O[C@@H](O[C@H]2[C@@H](OC=O)C[C@H](O[C@H]3[C@@H](OC=O)C[C@H](O[C@H]4CC[C@@]5(C)[C@H](CC[C@@H]6[C@@H]5CC[C@]5(C)[C@@H](C7=CC(=O)OC7)[C@@H](OC=O)C[C@]65O)C4)O[C@@H]3C)O[C@@H]2C)C[C@H](OC=O)[C@@H]1OC=O` [Pentaformylgitoxin], the “K retentions” value in data set [1] was 8.99. For the same molecule, the ID50 in data set [2] is reported as 0.23 ± 0.00 ×10^−4 mol l^−1. Also, the “P (partition coefficient in octanol/water system)” value in data set [3] is listed as 1440.0 ± 118.3. The “RM values” value in data set [4] is 1.85.

`C[C@]12CC[C@H]3[C@@H](CC[C@]4(O)C[C@@H](O)CC[C@]34C=O)[C@@]1(O)CC[C@@H]2C1=CC(=O)OC1` [k-Strophanthidin]: the “K retentions” value in data set [1] is recorded as 0.42. Besides, in data set [2], the ID50 is on record as 17.80 ± 0.81 ×10^−4 mol l^−1. For the same molecule, the “P (partition coefficient in octanol/water system)” value in data set [3] is 3.60 ± 0.5. The “R values for reversed-phase thin layer chromatography” value in data set [4] is −0.14.

Consider `CO[C@H]1C[C@H](O[C@H]2CC[C@]3(C=O)[C@H]4CC[C@]5(C)[C@@H](C6=CC(=O)OC6)CC[C@]5(O)[C@@H]4CC[C@]3(O)C2)O[C@H](C)[C@H]1O` [k-Strophanthin-α], for which the “K retentions” value in data set [1] is 0.79. Further, the ID50 in data set [2] is 1.29 ± 0.14 ×10^−4 mol l^−1. In addition, in data set [3], the “P (partition coefficient in octanol/water system)” value is 4.40 ± 0.3. The “RM values” value in data set [4] is reported as −0.09.

Regarding `CO[C@H]1C[C@H](O[C@H]2CC[C@]3(C=O)[C@H]4CC[C@]5(C)[C@@H](C6=CC(=O)OC6)CC[C@]5(O)[C@@H]4CC[C@]3(O)C2)O[C@H](C)[C@H]1O[C@@H]1O[C@H](CO)[C@@H](O)[C@H](O)[C@H]1O` [k-Strophanthin-β], the “K retentions” value in data set [1] is on record as 0.22. The ID50 in data set [2] was 2.51 ± 0.12 ×10^−4 mol l^−1. Besides, the “P (partition coefficient in octanol/water system)” value in data set [3] is 0.11 ± 0.01. Moreover, in data set [4], the “RM values” value is −0.50.

On to `CO[C@H]1C[C@H](O[C@H]2CC[C@]3(C=O)[C@H]4CC[C@]5(C)[C@@H](C6=CC(=O)OC6)CC[C@]5(O)[C@@H]4CC[C@]3(O)C2)O[C@H](C)[C@H]1O[C@@H]1O[C@H](CO[C@@H]2O[C@H](CO)[C@@H](O)[C@H](O)[C@H]2O)[C@@H](O)[C@H](O)[C@H]1O` [k-Strophanthin-γ], for which the “K retentions” value in data set [1] is 0.21. Further, in data set [2], the ID50 is 2.47 ± 0.25 ×10^−4 mol l^−1. Further, the “P (partition coefficient in octanol/water system)” value in data set [3] is reported as 0.15 ± 0.07. For the same molecule, the “RM values” value in data set [4] is recorded as −0.62.

As for `COC1C(O)CC(OC2C(O)CC(OC3C(O)CC(OC4CCC5(C)C(CCC6C5CCC5(C)C(C7=CC(=O)OC7)CCC65O)C4)OC3C)OC2C)OC1C` (stereo not drawn) [β-Methyldigitoxin], the “K retentions” value in data set [1] was 8.28. Also, in data set [2], the ID50 is given as 0.40 ± 0.03 ×10^−4 mol l^−1. In addition, the “P (partition coefficient in octanol/water system)” value in data set [3] is reported as 1300.0 ± 227.0; in data set [3] (listed as B-methyl digitoxin), 1300. Also, the “RM values” value in data set [4] is listed as 1.71.

For the molecule `CO[C@H]1[C@@H](O)C[C@H](O[C@H]2[C@@H](O)C[C@H](O[C@H]3[C@@H](O)C[C@H](O[C@H]4CC[C@@]5(C)[C@H](CC[C@@H]6[C@@H]5C[C@@H](O)[C@]5(C)[C@@H](C7=CC(=O)OC7)CC[C@]65O)C4)O[C@@H]3C)O[C@@H]2C)O[C@@H]1C` [β-Methyldigoxin], the “K retentions” value in data set [1] was 1.19. Besides, the ID50 in data set [2] is on record as 1.55 ± 0.06 ×10^−4 mol l^−1. Besides, the “P (partition coefficient in octanol/water system)” value in data set [3] is recorded as 63.3 ± 20.9.

As to Dihydro-digoxin, the “K retentions” value in data set [1] is reported as 0.51. In addition, in data set [2], the ID50 is recorded as 40.90 ± 3.35 ×10^−4 mol l^−1. Moreover, the “RM values” value in data set [4] was 0.24.

Turning to α,β-Diacetyldigoxin, in data set [1], the “K retentions” value is 4.31. Also, the ID50 in data set [2] was 1.27 ± 0.02 ×10^−4 mol l^−1. Moreover, the “P (partition coefficient in octanol/water system)” value in data set [3] is given as 392.0 ± 82.0. Besides, the “RM values” value in data set [4] is given as 1.16.

Consider α,β-Dimethyldigoxin, for which, in data set [1], the “K retentions” value was 2.76. For the same molecule, the ID50 in data set [2] is recorded as 1.28 ± 0.06 ×10^−4 mol l^−1. Moreover, in data set [3], the “P (partition coefficient in octanol/water system)” value is 138.0 ± 12.1. For the same molecule, the “RM values” value in data set [4] is 0.94.

Turning to α-Acetyldigoxin, in data set [1], the “K retentions” value is 0.99. For the same molecule, in data set [2], the ID50 was 2.50 ± 0.31 ×10^−4 mol l^−1. The “P (partition coefficient in octanol/water system)” value in data set [3] was 54.6 ± 7.8. In addition, in data set [4], the “RM values” value was 0.50.
